Measured values: US7615643B2 (SmithKline Beecham Corporation, priority 2006, dated 2009)

Target: T1, PLK1 (Homo sapiens, UniProt P53350)
T1 construct: PLK kinase domain (amino acids 21-346 preceded by MKKGHHHHHHD); made in house; host or cells: baculovirus infected T. ni cells
Assay: Assay for inhibition of PLK1 (SPA kinase assay)
Assay type: biochemical
Conditions: 1 μM ATP, 2 nM PLK1 kinase domain; for IC50: read-out: PLK1 pIC50 (converted)
In short: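 His-tagged PLK1 kinase domain (aa 21-346, baculovirus/T. ni) at 2 nM with 1 μM ATP plus 33P-γ-ATP and 1 μM biotinylated peptide in 25 mM HEPES pH 7.2, 15 mM MgCl2, 1 mM DTT, 0.15 mg/mL BSA; 1-1.5 h at 22° C. Streptavidin SPA capture read; percent inhibition versus DMSO, EDTA background.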

T1 sequence (P53350 21-346): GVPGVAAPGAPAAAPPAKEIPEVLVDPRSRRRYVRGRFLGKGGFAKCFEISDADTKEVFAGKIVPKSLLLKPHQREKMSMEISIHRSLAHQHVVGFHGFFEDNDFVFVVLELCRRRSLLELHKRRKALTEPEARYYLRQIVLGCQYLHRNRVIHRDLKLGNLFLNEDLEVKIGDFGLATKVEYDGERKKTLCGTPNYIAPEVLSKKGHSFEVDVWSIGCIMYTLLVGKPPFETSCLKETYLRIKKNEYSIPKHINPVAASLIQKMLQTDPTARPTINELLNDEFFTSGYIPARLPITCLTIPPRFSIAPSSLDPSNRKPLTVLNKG

| Compound | IC50 | PLK1 pIC50 |
| --- | --- | --- |
| C[C@@H](Oc1cc(-n2cnc3ccc(CS(C)(=O)=O)cc32)sc1C(N)=O)c1cccc(OC2CCN(C)CC2)c1Cl [Example 55, 3-[((1R)-1-{2-chloro-3-[(1-methyl-4-piperidinyl)oxy]phenyl}ethyl)oxy]-5,6-{6-[(methylsulfonyl)methyl]-1H-benzimidazol-1-yl}-2-thiophenecarboxamide] | < 100 nM |  |
| C[C@@H](Oc1cc(-n2cnc3ccc(CS(C)(=O)=O)cc32)sc1C(N)=O)c1cccc(OCC2CCNCC2)c1Cl [Example 56, 3-[((1R)-1-{2-chloro-3-[(4-piperidinylmethyl)oxy]phenyl}ethyl)oxy]-5-{6-[(methylsulfonyl)methyl]-1H-benzimidazol-1-yl}-2-thiophenecarboxamide] | < 100 nM |  |
| C[C@@H](Oc1cc(-n2cnc3ccc(CS(C)(=O)=O)cc32)sc1C(N)=O)c1cccc(OCC2CCCN2C)c1Cl (stereo partly drawn) [Example 57, 3-({(1R)-1-[2-Chloro-3-({[(2S)-1-methyl-2-pyrrolidinyl]metliyl}oxy)phenyl]ethyl}oxy)-5-{6-[(methylsulfonyl)methyl]-1H-benzimidazol-1-yl}-2-thiophenecarboxamide] | < 100 nM |  |
| C[C@@H](Oc1cc(-n2cnc3ccc(S(C)(=O)=O)cc32)sc1C(N)=O)c1cccc(OC2CCNCC2)c1Cl [Example 60, 3-({(1R)-1-[2-chloro-3-(4-piperidineloxy)phenyl]ethyl}oxy)-5-[6-(methylsulfonyl)-1H-benzimidazol-1-yl]-2-thiophenecarboxamide] |  | +++ (pIC50>7) |
| C[C@@H](Oc1cc(-n2cnc3cc(OC(F)(F)F)ccc32)sc1C(N)=O)c1cccc(OC2CCNCC2)c1Cl [Example 61, 3-({(1R)-1-[2-chloro-3-(4-piperidinyloxy)phenyl]ethyl}oxy)-5-{5-[(trifluoromethyl)oxy]-1H-benzimidazol-1-yl}-2-thiophenecarboxamide] | < 100 nM |  |
| C[C@@H](Oc1cc(-n2cnc3cc(OC(F)(F)F)ccc32)sc1C(N)=O)c1cccc(OC2CCN(C)CC2)c1Cl [Example 62, 3-[((1R)-1-{2-chloro-3-[(1-methyl-4-piperidinyl)oxy]phenyl}ethyl)oxy]-5-{5-[(trifluoromethyl)oxy]-1H-benzimidazol-1-yl}-2-thiophenecarboxamide] | < 100 nM |  |
| C[C@@H](Oc1cc(-n2cnc3ccc(OC(F)(F)F)cc32)sc1C(N)=O)c1cccc(OC2CCNCC2)c1Cl [Example 63, 3-({(1R)-1-[2-chloro-3-(4-piperidinyloxy)phenyl]ethyl}oxy)-5-{6-[(trifluoromethyl)oxy]-1H-benzimidazol-1-yl}-2-thiophenecarboxamide] | < 100 nM |  |
| C[C@@H](Oc1cc(-n2cnc3ccc(OC(F)(F)F)cc32)sc1C(N)=O)c1cccc(OC2CCN(C)CC2)c1Cl [Example 64, 3-[((1R)-1-{2-chloro-3-[(1-methyl-4-piperidinyl)oxy]phenyl}ethyl)oxy]-5-{6-[(trifluoromethyl)oxy]-1H-benzimidazol-1-yl}-2-thiophenecarboxamide] | < 100 nM |  |
| C[C@@H](Oc1cc(-n2cnc3cc(F)c(F)cc32)sc1C(N)=O)c1cccc(OC2CCNCC2)c1Cl [Example 65, 3-({(1R)-1-[2-chloro-3-(4-piperidinyloxy)phenyl]ethyl}oxy)-5-(5,6-difluoro-1H-benzimidazol-1-yl)-2-thiophenecarboxamide] | < 100 nM |  |
| C[C@@H](Oc1cc(-n2cnc3cc(F)c(F)cc32)sc1C(N)=O)c1cccc(OC2CCN(C)CC2)c1Cl [Example 66, 3-[((1R)-1-{2-chloro-3-[(1-methyl-4-piperidinyl)oxy]phenyl}ethyl)-oxy]-5-(5,6-difluoro-1H-benzimidazol-1-yl)-2-thiophenecarboxamide] | < 100 nM |  |
| C[C@@H](Oc1cc(-n2cnc3cc(Cl)c(F)cc32)sc1C(N)=O)c1cccc(OC2CCNCC2)c1Cl [Example 67, 5-(5-Chloro-6-fluoro-1H-benzimidazol-1-yl)-3-({(1R)-1-[2-chloro-3-(4-piperidinyloxy)phenyl]ethyl}oxy)-2-thiophenecarboxamide] | < 100 nM |  |
| C[C@@H](Oc1cc(-n2cnc3cc(Cl)c(F)cc32)sc1C(N)=O)c1cccc(OC2CCN(C)CC2)c1Cl [Example 68, 5-(5-Chloro-6-fluoro-1H-benzimidazol-1-yl)-3-[((1R)-1-{2-chloro-3-[(1-methyl-4-piperidinyl)oxy]phenyl}ethyl)oxy]-2-thiophenecarboxamide] | < 100 nM |  |
| C[C@@H](Oc1cc(-n2cnc3cc(F)c(Cl)cc32)sc1C(N)=O)c1cccc(OC2CCNCC2)c1Cl [Example 69, 5-(6-Chloro-5-fluoro-1H-benzimidazol-1-yl)-3-({(1R)-1-[2-chloro-3-(4-piperidinyloxy)phenyl]ethyl}oxy)-2-thiophenecarboxamide] | < 100 nM |  |
| C[C@@H](Oc1cc(-n2cnc3cc(F)c(Cl)cc32)sc1C(N)=O)c1cccc(OC2CCN(C)CC2)c1Cl [Example 70, 5-(6-Chloro-5-fluoro-1H-benzimidazol-1-yl)-3-[((1R)-1-{2-chloro-3-[(1-methyl-4-piperidinyl)oxy]phenyl}ethyl)oxy]-2-thiophenecarboxamide] | < 100 nM |  |
| C[C@@H](Oc1cc(-n2cnc3cc(Cl)c(Cl)cc32)sc1C(N)=O)c1cccc(OC2CCNCC2)c1Cl [Example 71, 3-({(1R)-1-[2-Chloro-3-(4-piperidinyloxy)phenyl]ethyl}oxy)-5-(5,6-dichloro-1H-benzimidazol-1-yl)-2-thiophenecarboxamide] | < 100 nM |  |
| C[C@@H](Oc1cc(-n2cnc3cc(Cl)c(Cl)cc32)sc1C(N)=O)c1cccc(OC2CCN(C)CC2)c1Cl [Example 72, 3-[((1R)-1-{2-chloro-3-[(1-methyl-4-piperidinyl)oxy]phenyl}ethyl)oxy]-5-(5,6-dichloro-1H-benzimidazol-1-yl)-2-thiophenecarboxamide] | < 100 nM |  |
| CC(Oc1cc(-n2cnc3cc(-c4cnn(C)c4)ccc32)sc1C(N)=O)c1ccnc(OC2CCN(C)CC2)c1 (stereo not shown) [Example 80, 3-[(1-{2-[(1-Methyl-4-piperidinyl)oxy]-4-pyridinyl}ethyl)oxy]-5-[5-(1-methyl-1H-pyrazol-4-yl)-1H-benzimidazol-1-yl]-2-thiophenecarboxamide] | < 100 nM |  |
| Cn1cc(-c2ccc3c(c2)ncn3-c2cc(OCc3cccc(OC4CCNCC4)c3)c(C(N)=O)s2)cn1 [Example 83, 5-[5-(1-Methyl-1H-pyrazol-4-yl)-1H-benzimidazol-1-yl]-3-({[3-(4-piperidinyloxy)phenyl]methyl}oxy)-2-thiophenecarboxamide] | < 100 nM |  |
| CN1CCC(Oc2cccc(COc3cc(-n4cnc5cc(-c6cnn(C)c6)ccc54)sc3C(N)=O)c2)CC1 [Example 84, 3-[({3-[(1-Methyl-4-piperidinyl)oxy]phenyl}methyl)oxy]-5-[5-(1-methyl-1H-pyrazol-4-yl)-1H-benzimidazol-1-yl]-2-thiophenecarboxamide] | < 100 nM |  |
| CC(Oc1cc(-n2cnc3cc(-c4cnn(C)c4)ccc32)sc1C(N)=O)c1cc(OC2CCNCC2)ccn1 (stereo not shown) [Example 85, 5-[5-(1-Methyl-1H-pyrazol-4-yl)-1H-benzimidazol-1-yl]-3-({1-[4-(4-piperidinyloxy)-2-pyridinyl]ethyl}oxy)-2-thiophenecarboxamide] | < 100 nM |  |
| Cc1nnc(-c2ccc3c(c2)ncn3-c2cc(O[C@H](C)c3cccc(OC4CCNCC4)c3Cl)c(C(N)=O)s2)o1 [Example 87, 3-({(1R)-1-[2-Chloro-3-(4-piperidinyloxy)phenyl]ethyl}oxy)-5-[5-(5-methyl-1,3,4-oxadiazol-2-yl)-1H-benzimidazol-1-yl]-2-thiophenecarboxamide] | < 100 nM |  |
| Cc1nnc(-c2ccc3c(c2)ncn3-c2cc(O[C@H](C)c3cccc(OC4CCN(C)CC4)c3Cl)c(C(N)=O)s2)o1 [Example 88, 3-[((1R)-1-{2-chloro-3-[(1-methyl-4-piperidinyl)oxy]phenyl}ethyl)oxy]-5-[5-(5-methyl-1,3,4-oxadiazol-2-yl)-1H-benzimidazol-1-yl]-2-thiophenecarboxamide] | < 100 nM |  |
